{"source": "patent US20090264342A1", "about": "“COMPOSITIONS AND METHODS FOR ANTIBIOTIC POTENTIATION AND DRUG DISCOVERY” (priority 2006, published 2009)", "assay_type_in_all_cases": "cell-based", "key": {"[1]": {"system": "E. coli MG1655", "assay": "Survival assay (CFU) of E. coli MG1655 recA+ / recA− after exposure to Nor", "conditions": "wild type background, 3 hours of exposure to Nor 0.1 μg/mL", "description": "The ability of these fours strains to survive exposure to Nor was then tested. The experiment was performed as follows. Cultures were grown to early log phase in LB at 37° C. with shaking. At the 0 time point Nor was added to the cultures to a final concentration of 0.1 μg/mL. This concentration of Nor is just below the MIC for strain MG1655 under these growth conditions. Samples of the cells were collected and washed in PBS at 0, 30, 90 and 180 min time points. The number of viable cells was determined by plating the cells from each time point on LB agar and counting colonies. The CFU counts were normalized based on the time 0 time point inoculum for each culture (i.e., the CFU count obtained from the 0 time point inoculum was taken to represent 100% survival) and the log % survival was plotted (FIG. 3).\nThe recA deletion caused a 10,000 fold increase in quinolone sensitivity in a wild type background after 3 hours of exposure to Nor. […] In addition, inhibiting the expression and/or activity of E. coli RecA (or its homolog in other bacteria) is expected to render bacterial strains that have acquired resistance to quinolones (e.g., due to mutation in one or more subunits of the bacterial gyrase or topoisomerase IV and/or due to increased copy number of a gene encoding one of these polypeptides) sensitive once again to these compounds."}, "[2]": {"system": "S. aureus RN4220 and RN4220 recA−", "assay": "Survival assay in the RN4220 background after exposure to Nor", "conditions": "RN4220 recA− vs RN4220, 3 hours of exposure to Nor 0.5 μg/mL", "description": "The survival ability of RN4220 and RN4220 recA^− following exposure to Nor was then tested as described in Example 2 for E. coli strains. The recA null mutant and parental strains (RN4220 recA^− and RN4220, respectively) were grown to early log phase in LB at 37° C. with shaking. At the 0 time point Nor was added to the cultures to a final concentration of 0.5 μg/mL, which is just below the MIC for wild type cells (RN4220). Samples of the cells were collected and washed in PBS at 0, 30, 90 and 180 minutes time points. The number of viable cells was determined by plating the cells on LB from each time point and counting colonies. The CFU counts were normalized based on the time 0 time point inoculum for each culture (i.e., the CFU count obtained from the 0 time point inoculum was taken to represent 100% survival) and the log % survival was plotted (FIG. 5).\nIt was concluded that recA is essential for survival in the presence of quinolones (FIG. 5). As in E. coli, recA deletion causes 10,000× increase in quinolone sensitivity compared to the parental strain after 3 hours of exposure to Nor."}, "[3]": {"system": "SOS response (LexA auto-cleavage) in E. coli", "assay": "SOS induction, LexA-controlled GFP DNA damage sensor", "conditions": "5 μg/mL Amp, 5 μg/mL Kan, 25 ng/mL Nor; 3 hours after addition", "description": "FIG. 37 is a set of two graphs showing SOS induction in E. coli by bactericidal antibiotics. Activation of the SOS response was monitored using an engineered sensor construct that employs the LexA repressor for control of Green Fluorescent Protein (GFP) expression. Shown are representative GFP histogram measurements taken 3 hours after addition of a, bactericidal antibiotics (5 μg/mL Amp, 5 μg/mL Kan, 25 ng/mL Nor). b, Log change in CFU/mL of ΔrecA E. coli following exposure to 5 μg/mL Kanamycin (open diamonds), 25 ng/mL Norfloxacin (open triangles), and 5 μg/mL Ampicillin (open circles). For comparison, CFU/mL are also shown for widltype E. coli exposed to 5 μg/mL Kanamycin (diamonds), 25 ng/mL Norfloxacin (triangles), and 5 μg/mL Ampicillin (circles), as well as a lower concentration of norfloxacin in these experiments to highlight the significant increase in killing in a recA knockout.\nDNA damage sensor construction. The DNA sensor construct with ampicillin resistance was described previously (D. J. Dwyer et al., “Superoxide and hydroxyl radicals contribute to gyrase inhibitor-mediated cell death in E. coli”, 2007 accepted by Mol. Syst. Biol., which is incorporated herein by reference in its entirety).\nHydroxyl radical and DNA damage sensor experiments using the flow cytometer. […]\nHydroxyl radical are extremely toxic, and will readily damage membrane lipids, proteins and DNA. […]"}}, "data": [{"smiles": "CCn1cc(C(=O)O)c(=O)c2cc(F)c(N3CCNCC3)cc21", "note": "[Nor, norfloxacin]", "values": [{"measurement": "increase in quinolone sensitivity caused by recA deletion", "setting": "[1]", "value": "10,000 fold"}, {"measurement": "increase in quinolone sensitivity caused by recA deletion compared to parental strain", "setting": "[2]", "value": "10,000 ×"}, {"measurement": "SOS activity (LexA-driven GFP expression)", "setting": "[3]", "value": "significant increase in SOS activity"}]}]}
